Source: patent US11000033B2, “Ketone or oxime compound, and herbicide” (NISSAN CHEMICAL CORPORATION, priority 2014, dated 2021)

Tests used:
Assay type in all cases: in vivo
Scirpus juncoides = experiment: Test Example 2: herbicidal activity, application during weed generation in submerged conditions (symbol B); conditions: Table 23; application herbicide amount 320 g/ha; grade 0-5 by criteria of Test Example 1
How it was run: (§1)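 Flooded-soil post-emergence test: emulsion of compound, water-diluted to target rate, applied to paddy water surface at 1–2 leaf stage of mixed-sown weeds (alluvial soil, 4 cm water, 25–30° C. greenhouse); visual rating 3 weeks after application.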

wheat = experiment: Test Example 4: effect on crop by soil treatment (symbol e); conditions: application herbicide amount 320 g/ha
How it was run: (§2)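 Soil-treatment setup: crop and weed seeds were spot-sown into sterilized diluvial soil, then buried beneath approximately 1.5 cm of it, and the boxes were housed in a 25–30° C. greenhouse.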

[1] = system: Echinochloa crus-galli var. crus-galli; experiment: Test Example 3: herbicidal effect by foliage application, Wagner pot (symbol H); conditions: application herbicide amount 320 g/ha, Table 24
How it was run: (§3)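 Rating at 3 weeks post-spray, by defined criteria. Treatment: emulsion diluted with water to a predetermined amount, applied evenly to foliage of 14-day-old plants raised in alluvial soil flooded 0.1–0.5 cm deep at 25–30 °C, rice co-sown.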

Stellaria media = experiment: Test Example 5: herbicidal effect by foliage application, plastic box (symbol P); conditions: 320 g/ha, 3 weeks after application
How it was run: (§4)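 Post-emergence spray; diluvial soil (sterilized), ~1.5 cm seed cover; greenhouse 25–30° C; 14-day-old plants; water-diluted emulsion at predetermined dose; visual score at 3 wk post-treatment.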

[2] = system: Echinochloa oryzacola Vasing.; experiment: Test Example 2: herbicidal activity, application during weed generation in submerged conditions (symbol A); conditions: Table 23; application herbicide amount 320 g/ha; grade 0-5 by criteria of Test Example 1
How it was run: as §1

Amaranthus retroflexus [3] = experiment: Test Example 5: herbicidal effect by foliage application, plastic box (symbol N); conditions: 320 g/ha, 3 weeks after application
How it was run: as §4

beet [4] = experiment: Test Example 4: effect on crop by soil treatment (symbol f); conditions: application herbicide amount 320 g/ha
How it was run: as §2

Abutilon theophrasti = experiment: Test Example 5: herbicidal effect by foliage application, plastic box (symbol M); conditions: 320 g/ha, 3 weeks after application
How it was run: as §4

Veronica persica = experiment: Test Example 5: herbicidal effect by foliage application, plastic box (symbol R); conditions: 320 g/ha, 3 weeks after application
How it was run: as §4

Alopecurus myosuroides = experiment: Test Example 4: herbicidal effect by soil treatment (symbol J); conditions: application herbicide amount 320 g/ha
How it was run: (§5)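 Seeds were sown in sterilized diluvial soil, covered with about 1.5 cm of soil, and the soil surface was sprayed with a water-diluted emulsion of the compound at a predetermined rate. Plants grew in a greenhouse at 25° C. to 30° C.; effects were scored visually 3 weeks after application.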

Chenopodium album [5] = experiment: Test Example 5: herbicidal effect by foliage application, plastic box (symbol O); conditions: 320 g/ha, 3 weeks after application
How it was run: as §4

soybean = experiment: Test Example 4: effect on crop by soil treatment (symbol d); conditions: application herbicide amount 320 g/ha
How it was run: as §2

beet [6] = experiment: Test Example 5: effect on crop by foliage application, plastic box (symbol f); conditions: 320 g/ha, 3 weeks after application
How it was run: (§6)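 Diluvial soil, sterilized and boxed (21 × 13 × 7 cm), received spot-sown seed covered by about 1.5 cm soil; plants were then greenhouse-grown at 25–30° C.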

Chenopodium album [7] = experiment: Test Example 4: herbicidal effect by soil treatment (symbol O); conditions: application herbicide amount 320 g/ha
How it was run: as §5

Amaranthus retroflexus [8] = experiment: Test Example 4: herbicidal effect by soil treatment (symbol N); conditions: application herbicide amount 320 g/ha
How it was run: as §5

Cyperus difformis = experiment: Test Example 3: herbicidal effect by foliage application, Wagner pot (symbol E); conditions: application herbicide amount 320 g/ha, Table 24
How it was run: as §3

[9] = system: Echinochloa crus-galli var. crus-galli; experiment: Test Example 4: herbicidal effect by soil treatment (symbol H); conditions: application herbicide amount 320 g/ha
How it was run: as §5

Lolium multiflorum Lam. = experiment: Test Example 4: herbicidal effect by soil treatment (symbol K); conditions: application herbicide amount 320 g/ha
How it was run: as §5

Setaria viridis = experiment: Test Example 5: herbicidal effect by foliage application, plastic box (symbol G); conditions: 320 g/ha, 3 weeks after application
How it was run: as §4

rice plant = experiment: Test Example 5: effect on crop by foliage application, plastic box (symbol b); conditions: 320 g/ha, 3 weeks after application
How it was run: as §6

SMILES: CC#Cc1cc(C)c(C2=C(O)CC(CC(=NOCCOC)C(C)C)C2=O)c(C)c1 (stereo not shown) [9-023]
- Herbicidal effect grade, B: Scirpus juncoides (Scirpus juncoides): 4 (Herbicidal ratio of 70% or higher and lower than 90%)
- Effect on crop grade, e: wheat (wheat): 3 (Herbicidal ratio of 40% or higher and lower than 70%)
- H (Echinochloa crus-galli var. crus-galli) herbicidal effect grade [1]: 5 (Herbicidal ratio of 90% or more (almost completely withered))
- P: Stellaria media, herbicidal effect grade (Stellaria media): 3 (Herbicidal ratio of 40% or higher and lower than 70%)
- Herbicidal effect grade, A: Echinochloa oryzacola Vasing. [2]: 5 (Herbicidal ratio of 90% or more (almost completely withered))
- N: Amaranthus retroflexus, herbicidal effect grade (Amaranthus retroflexus [3]): 0 (Herbicidal ratio of 5% or lower (almost no effect))
- Effect on crop grade, f: beet (beet [4]): 0 (Herbicidal ratio of 5% or lower (almost no effect))
- M: Abutilon theophrasti, herbicidal effect grade (Abutilon theophrasti): 0 (Herbicidal ratio of 5% or lower (almost no effect))
- R: Veronica persica, herbicidal effect grade (Veronica persica): 3 (Herbicidal ratio of 40% or higher and lower than 70%)
- Herbicidal effect grade, J: Alopecurus myosuroides (Alopecurus myosuroides): 3 (Herbicidal ratio of 40% or higher and lower than 70%)
- O: Chenopodium album, herbicidal effect grade (Chenopodium album [5]): 3 (Herbicidal ratio of 40% or higher and lower than 70%)
- Effect on crop grade, d: soybean (soybean): 0 (Herbicidal ratio of 5% or lower (almost no effect))
- f: beet, effect on crop grade (beet [6]): 0 (Herbicidal ratio of 5% or lower (almost no effect))
- Herbicidal effect grade, O: Chenopodium album (Chenopodium album [7]): 0 (Herbicidal ratio of 5% or lower (almost no effect))
- Herbicidal effect grade, N: Amaranthus retroflexus (Amaranthus retroflexus [8]): 5 (Herbicidal ratio of 90% or more (almost completely withered))
- E herbicidal effect grade (Cyperus difformis): 5 (Herbicidal ratio of 90% or more (almost completely withered))
- Herbicidal effect grade, H: Echinochloa crus-galli var. crus-galli [9]: 5 (Herbicidal ratio of 90% or more (almost completely withered))
- Herbicidal effect grade, K: Lolium multiflorum Lam. (Lolium multiflorum Lam.): 3 (Herbicidal ratio of 40% or higher and lower than 70%)
- G: Setaria viridis, herbicidal effect grade (Setaria viridis): 5 (Herbicidal ratio of 90% or more (almost completely withered))
- b: directly sowed rice plant, effect on crop grade (rice plant): 5 (Herbicidal ratio of 90% or more (almost completely withered))

SMILES: CC(CC1CC(O)=C(c2c(C)cc(-c3ccc(Cl)cc3)cc2C)C1=O)=NOCC(F)(F)F (stereo not shown) [9-024]
- Herbicidal effect grade, B: Scirpus juncoides (Scirpus juncoides): 3 (Herbicidal ratio of 40% or higher and lower than 70%)
- Effect on crop grade, e: wheat (wheat): 2 (Herbicidal ratio of 20% or higher and lower than 40%)
- H (Echinochloa crus-galli var. crus-galli) herbicidal effect grade [1]: 5 (Herbicidal ratio of 90% or more (almost completely withered))
- P: Stellaria media, herbicidal effect grade (Stellaria media): 4 (Herbicidal ratio of 70% or higher and lower than 90%)
- Herbicidal effect grade, A: Echinochloa oryzacola Vasing. [2]: 3 (Herbicidal ratio of 40% or higher and lower than 70%)
- N: Amaranthus retroflexus, herbicidal effect grade (Amaranthus retroflexus [3]): 1 (Herbicidal ratio of 5% or higher and lower than 20%)
- Effect on crop grade, f: beet (beet [4]): 0 (Herbicidal ratio of 5% or lower (almost no effect))
- M: Abutilon theophrasti, herbicidal effect grade (Abutilon theophrasti): 3 (Herbicidal ratio of 40% or higher and lower than 70%)
- R: Veronica persica, herbicidal effect grade (Veronica persica): 4 (Herbicidal ratio of 70% or higher and lower than 90%)
- Herbicidal effect grade, J: Alopecurus myosuroides (Alopecurus myosuroides): 5 (Herbicidal ratio of 90% or more (almost completely withered))
- O: Chenopodium album, herbicidal effect grade (Chenopodium album [5]): 4 (Herbicidal ratio of 70% or higher and lower than 90%)
- Effect on crop grade, d: soybean (soybean): 0 (Herbicidal ratio of 5% or lower (almost no effect))
- f: beet, effect on crop grade (beet [6]): 0 (Herbicidal ratio of 5% or lower (almost no effect))
- Herbicidal effect grade, O: Chenopodium album (Chenopodium album [7]): 0 (Herbicidal ratio of 5% or lower (almost no effect))
- Herbicidal effect grade, N: Amaranthus retroflexus (Amaranthus retroflexus [8]): 3 (Herbicidal ratio of 40% or higher and lower than 70%)
- E herbicidal effect grade (Cyperus difformis): 5 (Herbicidal ratio of 90% or more (almost completely withered))
- Herbicidal effect grade, H: Echinochloa crus-galli var. crus-galli [9]: 5 (Herbicidal ratio of 90% or more (almost completely withered))
- Herbicidal effect grade, K: Lolium multiflorum Lam. (Lolium multiflorum Lam.): 5 (Herbicidal ratio of 90% or more (almost completely withered))
- G: Setaria viridis, herbicidal effect grade (Setaria viridis): 5 (Herbicidal ratio of 90% or more (almost completely withered))
- b: directly sowed rice plant, effect on crop grade (rice plant): 5 (Herbicidal ratio of 90% or more (almost completely withered))
